The subject of data set [1] is Daphnia magna. Particulars: chronic/long-term; duration: 21 days; reproduction.
In data set [2] the test system is Canidae. The following applies: short-term; duration: 28 days; oral; Dog Other; clinical chemistry.
Data set [3] concerns Rattus norvegicus. The following applies: for NOAEL: clinical chemistry.
Data set [4] has as its system Oncorhynchus mykiss. The following applies: chronic/long-term; duration: 96 days; growth.
Data set [5] has as its system Tagia sp. Particulars: acute; mortality.
The conditions of data set [6]: chronic.
In data set [7] the test system is Aphidius rhopalosiphi. The following applies: chronic/long-term; reproduction.
The test system of data set [8] is Lepomis macrochirus. Particulars: acute; duration: 96 hours; mortality.
For data set [9], the system named is Coturnix japonica. The following applies: acute; oral; diet; mortality.
In data set [10] the test system is Colinus virginianus.
The subject of data set [11] is Mus musculus. The following applies: oral.
Data set [12] concerns Apis mellifera. Particulars: acute, mortality.
Data set [13] deals with Aphidius rhopalosiphi. Briefly: LR50; higher = less toxic. The following applies: acute; duration: 48 hours; mortality.

Molecules are shown by their SMILES. Values after ≈ are worked out from the molar mass of the structure shown.

As a reminder, the NOAEL is the highest tested level that showed no adverse finding. One may read the LOAEL as the lowest dose or exposure tested at which an adverse effect was seen. As to `COP(=S)(OC)SCN1C(=O)c2ccccc2C1=O` [Phosmet], the NOEC was determined as 0.00078 mg/L in [1], 0.0032 mg/L in [4], 0.001 mg/L in data set [6] and 7.5 mg/kg-day in data set [10] (reproduction developmental). Further, the NOAEL in [2] amounted to 2 mg/kg-day; in data set [3] (acute), 4.5 mg/kg-day; in data set [3] (subchronic, duration: 13 weeks), 1.5 mg/kg-day; in [3] (subchronic, duration: 90 days, oral), 2 mg/kg-day; in data set [11] (short-term, duration: 28 days, clinical chemistry) it was 2 mg/kg-day. Besides, the LD50 turned out to be 113 mg/kg in data set [3] (acute, oral, mortality); 57 mg/kg in data set [10] (acute, oral, mortality); 0.22 µg/piece in data set [12] (duration: 48 hours, dermal); 0.37 µg/piece in data set [12] (oral, unspecified). In data set [3] (reproduction developmental), the NOAEC stood at 1.5 mg/kg-day. The LC50 in data set [5] is 104 mg/kg; in data set [8] it was 0.0197 µg/mL (≈ 0.0621 µM); in data set [9], 406 mg/kg-day. Moreover, in data set [7], the LEL was 1.41 g/ha. This molecule yielded an LOAEL in data set [11] (chronic, duration: 2 years, diet, neurology) of 1 mg/kg-day. In [13], this molecule displayed an LR50 of 1.95 g/ha.

The values are drawn from EPA's ToxValDB 9.5 (doi:10.2903/j.efsa.2006.75r).
